Common to all, as to conditions: Homo sapiens
Assay [1] deals with MT4. The assay is described as follows: Inhibition of proliferation of MT-4 cells.
Assay [2] concerns HuT78. The assay is described as follows: Inhibition of proliferation of HUT78 cells.
Assay [3] deals with MT4. The assay is described as follows: Compound was evaluated for inhibition of proliferation of MT-4 cells (in vitro).
The test system of assay [4] is HuT78. The experiment in a line: Compound was evaluated for inhibition of proliferation of HUT78 cells (in vitro).
For assay [5], the system named is MT4. The experiment in a line: Compound was evaluated for inhibition of proliferation of MT-4 cells(in vitro).

In brackets after ≈: the same amount, converted by molar mass.

Usually IC50 stands for the point on the concentration scale where inhibition reaches its midpoint. For `C/C(=N\N=C(\N)S)c1cnccn1`, the results for the IC50 in the assay on MT4 [1] and with HuT78 [2] were 0.95 µg/mL (≈ 4.87 µM) and 1.39 µg/mL (≈ 7.12 µM), respectively.
The matching figures for `CC/C(=N\N=C(/S)N1CCCCCC1)c1cccnn1`: 0.039 µg/mL (≈ 0.134 µM) and 0.073 µg/mL (≈ 0.25 µM).
For `CC/C(=N\N=C(/S)N1CCCC1)c1cccnn1`, the IC50 with MT4 [1] is 0.016 µg/mL (≈ 0.0608 µM); with HuT78 [2] it was 0.052 µg/mL (≈ 0.197 µM).
On the same counts, the results for `C/C(=N\N=C(/S)N(C)C)c1ccc(C)nn1` are 0.12 µg/mL (≈ 0.506 µM) and 0.088 µg/mL (≈ 0.371 µM).
The matching figures for `C/N=C(\S)N/N=C(\C)c1ccncn1`: 0.02 µg/mL (≈ 0.0956 µM) and 0.022 µg/mL (≈ 0.105 µM).
On the same counts, the results for `C=CCN/C(S)=N/N=C(\C)c1cccnn1` are 1.28 µg/mL (≈ 5.44 µM) and 2.65 µg/mL (≈ 11.3 µM).
On to `C/C(=N\N=C(\N)S)c1ccncn1`, for which the IC50 in the assay on MT4 [1] came to 0.14 µg/mL (≈ 0.717 µM); with HuT78 [2], 0.82 µg/mL (≈ 4.2 µM).
On to `C/N=C(\S)N/N=C(\C)c1ccc(C)nn1`, for which the IC50 with MT4 [1] was 1.52 µg/mL (≈ 6.81 µM); in the assay with HuT78 [2], 2.15 µg/mL (≈ 9.63 µM).
For `C/C(=N\N=C(\N)S)c1ccc(C)nn1`, the IC50 in the assay with MT4 [1] turned out to be 1.49 µg/mL (≈ 7.12 µM); in the assay with HuT78 [2] it was 1.58 µg/mL (≈ 7.55 µM).
With `N/C(S)=N/N=C/c1cccnn1`, the IC50 in the assay on MT4 [1] stood at 2.18 µg/mL (≈ 12 µM); in the assay with HuT78 [2], 4.21 µg/mL (≈ 23.2 µM).
On the same counts, the results for `C/C(=N\N=C(/S)N1CCCC1)c1ccncn1` are 0.00026 µg/mL (≈ 0.00104 µM) and 0.00031 µg/mL (≈ 0.00124 µM).
On the same counts, the results for `C/C(=N\N=C(/S)N1CCCCCC1)c1ccncn1` are 0.016 µg/mL (≈ 0.0577 µM) and 0.0022 µg/mL (≈ 0.00793 µM).
The matching figures for `CN(C)/C(S)=N/N=C/c1cccnn1`: 0.11 µg/mL (≈ 0.526 µM) and 0.11 µg/mL (≈ 0.526 µM).
`C/N=C(\S)N/N=C/c1cccnn1`: the figures for the IC50 with MT4 [1] and in the assay on HuT78 [2] were 2.42 µg/mL (≈ 12.4 µM) and 4.52 µg/mL (≈ 23.1 µM), respectively.
The matching figures for `C/N=C(\S)N/N=C(\C)c1cccnn1`: 1.62 µg/mL (≈ 7.74 µM) and 1.86 µg/mL (≈ 8.89 µM).
The matching figures for `C/N=C(\S)N/N=C(\C)c1cnccn1`: 0.46 µg/mL (≈ 2.2 µM) and 0.88 µg/mL (≈ 4.2 µM).
In the case of `C/C(=N\N=C(/S)N(C)C)c1ccncn1`, the results for the IC50 in the assay on MT4 [1] and in the assay on HuT78 [2] were 0.00049 µg/mL (≈ 0.00219 µM) and 0.00065 µg/mL (≈ 0.00291 µM), respectively.
Turning to `C/C(=N\N=C(/S)NCc1ccccn1)c1cccnn1`, the IC50 in the assay with MT4 [1] worked out at 0.87 µg/mL (≈ 3.04 µM); in the assay with HuT78 [2], 2.01 µg/mL (≈ 7.02 µM).
On the same counts, the results for `C=CCNC(=S)N/N=C/c1cccnn1` are 3.1 µg/mL (≈ 14 µM) and 6.22 µg/mL (≈ 28.1 µM).
The matching figures for `CC(N/N=C(\S)N1CCCC1)c1cccnn1` (stereo not drawn): 0.016 µg/mL (≈ 0.0637 µM) and 0.068 µg/mL (≈ 0.271 µM).
On the same counts, the results for `C/C(=N\N=C(/S)NCc1ccccn1)c1ccc(C)nn1` are 1.64 µg/mL (≈ 5.46 µM) and 2.82 µg/mL (≈ 9.39 µM).
With `C/C(=N\NC(=S)N(C)C)c1cnccn1`, the IC50 in the assay on MT4 [1] was found to be 0.00045 µg/mL (≈ 0.00202 µM); with HuT78 [2] it was 0.00062 µg/mL (≈ 0.00278 µM).
Turning to `C/C(=N\NC(=S)N1CCCC1)c1cnccn1`, the values for the IC50 with MT4 [1] and with HuT78 [2] were 0.00019 µg/mL (≈ 0.000762 µM) and 0.00049 µg/mL (≈ 0.00197 µM), respectively.
`C/C(=N\NC(=S)N(C)C)c1ccccn1`: the IC50 in the assay on MT4 [3] is 0.00011 µg/mL (≈ 0.000495 µM); in the assay with HuT78 [4], 0.00055 µg/mL (≈ 0.00247 µM).
On to `CC/C(=N\N=C(/S)N1CCCCC1)c1cccnn1`, for which the IC50 in the assay with MT4 [1] worked out at 0.03 µg/mL (≈ 0.108 µM); in the assay with HuT78 [2], 0.071 µg/mL (≈ 0.256 µM).
On the same counts, the results for `C/C(=N\N=C(/S)N1CCCCCC1)c1cnccn1` are 0.0059 µg/mL (≈ 0.0213 µM) and 0.0083 µg/mL (≈ 0.0299 µM).
The matching figures for `C/C(=N\N=C(/S)N1CCCCC1)c1ccncn1`: 0.0013 µg/mL (≈ 0.00494 µM) and 0.0037 µg/mL (≈ 0.014 µM).
Take `CC(N/N=C(\S)N1CCCCCC1)c1cccnn1` (stereo not drawn): the figures for the IC50 in the assay with MT4 [1] and in the assay on HuT78 [2] were 0.028 µg/mL (≈ 0.1 µM) and 0.04 µg/mL (≈ 0.143 µM), respectively.
Take `C/C(=N\N=C(\N)S)c1cccnn1`: the IC50 with MT4 [1] came to 1.13 µg/mL (≈ 5.79 µM); in the assay with HuT78 [2], 0.99 µg/mL (≈ 5.07 µM).
Turning to `C/C(=N\N=C(/S)N1CCCC1)c1ccc(C)nn1`, the IC50 came to 0.036 µg/mL (≈ 0.137 µM) with MT4 [1] and 0.073 µg/mL (≈ 0.277 µM) in the assay with HuT78 [2].
On the same counts, the results for `CCC/C(=N\N=C(/S)N1CCCC1)c1cccnn1` are 0.036 µg/mL (≈ 0.13 µM) and 0.068 µg/mL (≈ 0.245 µM).
Turning to `CC(N/N=C(\S)N1CC2CCC(CC2)C1)c1cccnn1` (stereo not drawn), the IC50 was determined as 0.034 µg/mL (≈ 0.111 µM) in the assay on MT4 [1] and 0.038 µg/mL (≈ 0.124 µM) in the assay with HuT78 [2].
The matching figures for `CCC/C(=N\N=C(/S)N1CCCCC1)c1cccnn1`: 0.0012 µg/mL (≈ 0.00412 µM) and 0.0023 µg/mL (≈ 0.00789 µM).
The matching figures for `C=CCN/C(S)=N/N=C(\C)c1ccncn1`: 0.081 µg/mL (≈ 0.344 µM) and 0.031 µg/mL (≈ 0.132 µM).
On the same counts, the results for `C/C(=N\N=C(/S)NCc1ccccn1)c1ccncn1` are 0.018 µg/mL (≈ 0.0629 µM) and 0.24 µg/mL (≈ 0.838 µM).
On to `C/C(=N\N=C(/S)NCc1ccccn1)c1cnccn1`, for which the IC50 in the assay with MT4 [1] is 0.041 µg/mL (≈ 0.143 µM); with HuT78 [2], 1.11 µg/mL (≈ 3.88 µM).
On the same counts, the results for `C/C(=N\N=C(/S)N(C)C)c1cccnn1` are 0.1 µg/mL (≈ 0.448 µM) and 0.079 µg/mL (≈ 0.354 µM).
As for `CCC/C(=N\N=C(/S)N1CC2CCC(CC2)C1)c1cccnn1`, the results for the IC50 in the assay with MT4 [1] and in the assay with HuT78 [2] were 0.084 µg/mL (≈ 0.253 µM) and 0.062 µg/mL (≈ 0.187 µM), respectively.
On the same counts, the results for `C=CCN/C(S)=N/N=C(\C)c1ccc(C)nn1` are 1.47 µg/mL (≈ 5.9 µM) and 2.81 µg/mL (≈ 11.3 µM).
Turning to `C/C(=N\N=C(/S)N1CCCCCC1)c1ccc(C)nn1`, the IC50 amounted to 0.028 µg/mL (≈ 0.0961 µM) in the assay on MT4 [1] and 0.054 µg/mL (≈ 0.185 µM) in the assay on HuT78 [2].
The matching figures for `C=CCN/C(S)=N/N=C(\C)c1cnccn1`: 0.014 µg/mL (≈ 0.0595 µM) and 0.036 µg/mL (≈ 0.153 µM).
The matching figures for `C/C(=N\NC(=S)N1CCCCC1)c1cnccn1`: 0.00055 µg/mL (≈ 0.00209 µM) and 0.00052 µg/mL (≈ 0.00197 µM).
The matching figures for `S=C(NCc1ccccn1)N/N=C/c1cccnn1`: 3.9 µg/mL (≈ 14.3 µM) and 5.62 µg/mL (≈ 20.6 µM).
For the molecule `C/C(=N\NC(N)=S)c1ccccn1`, the IC50 in the assay with MT4 [5] was 0.049 µg/mL (≈ 0.252 µM); in the assay with HuT78 [4] it was 0.35 µg/mL (≈ 1.8 µM).
On to `CCC/C(=N\N=C(/S)N1CCCCCC1)c1cccnn1`, for which the IC50 in the assay on MT4 [1] was 0.088 µg/mL (≈ 0.288 µM); in the assay with HuT78 [2] it was 0.098 µg/mL (≈ 0.321 µM).
On the same counts, the results for `CC(N/N=C(\S)N1CCCCC1)c1cccnn1` (stereo not drawn) are 0.033 µg/mL (≈ 0.124 µM) and 0.074 µg/mL (≈ 0.279 µM).
The matching figures for `C/C(=N\N=C(/S)N1CCCCC1)c1ccc(C)nn1`: 0.019 µg/mL (≈ 0.0685 µM) and 0.055 µg/mL (≈ 0.198 µM).
The matching figures for `C/C(=N\N=C(/S)N1CC2CCC(CC2)C1)c1ccncn1`: 0.047 µg/mL (≈ 0.155 µM) and 0.036 µg/mL (≈ 0.119 µM).
On to `C/C(=N\N=C(/S)N1CC2CCC(CC2)C1)c1cnccn1`, for which the values for the IC50 with MT4 [1] and with HuT78 [2] were 0.0054 µg/mL (≈ 0.0178 µM) and 0.0069 µg/mL (≈ 0.0227 µM), respectively.
